Results on three compounds are retold here after US10828331B2, “Cellular compositions used to restore stem cell or progenitor cell function and methods related thereto” (Emory University, priority 2012, dated 2020).

The subject of assay [1] is mouse neural progenitors and mouse embryonic fibroblasts. Particulars: in combination with two factors (Oct4 and Klf4); cited from earlier work.
Another assay concerns diabetic MSCs. The assay is described as follows: real-time RT-PCR of angiogenic genes in compound-treated diabetic MSCs. It counts as cell-based, rat. As to conditions: D-MSCs treated with epigenetic compounds for 7 days, FIG. 1. Here is the method:
To reprogram diabetic MSCs with epigenetic compounds, cultured D-MSCs were treated with HDAC inhibitor: Vorinostat or suberoylanilide hydroxamic acid (SAHA); DNA methyltransferase inhibitor: Decitabine (trade name Dacogen), or 5-aza-2′-deoxycytidine (5-aza); multiple histone 3 lysine 9 (H3K9) methyltransferases G9a and GLP inhibitor: BIX-01294; and GSK3β inhibitor: CHIR99021 for 7 more days. N-MSCs and D-MSCs were cultured by a standard MSC culture method. The cultured MSCs are typically reseeded at day 4 and cultured for another 4 days. To examine the expression levels of angiogenic genes, we isolated RNAs from N-, D-, or epigenetic compound treated reprogrammed D-MSCs (RD-MSCs), and performed real-time RT-PCR with specific primers of angiogenic genes.
Diabetes was induced in 8 week-old male Fischer 344 rats by intravenous injection of streptozotocin ([…]). Blood glucose levels were measured using an Accu-Check glucometer (Roche, Indianapolis, Ind.) after one week and two months. […]
Gene expression was determined by TaqMan® real-time quantitative PCR on the 7300 Sequence Detection System (Applied Biosystems) using TaqMan® PCR Master Mix (Applied Biosystems). […] Relative mRNA expression of target gene normalized to GAPDH was calculated by using the formula Relative Expression Level=2−ΔCt, where ΔCt=Ct gene of interest−Ct GAPDH. […]
On the technique in general: In qPCR the cycle at which signal appears reflects the starting amount.

Structures are written as SMILES.

`COc1cc2nc(N3CCCN(C)CC3)nc(NC3CCN(Cc4ccccc4)CC3)c2cc1OC` [BIX01294]: in assay [1], the reprogramming efficiency entry was “enhanced the reprogramming efficiency”.

For the compound `O=C(CCCCCCC(=O)Nc1ccccc1)NO` [SAHA, suberoylanilide hydroxamic acid], the “expression of major angiogenic genes” value in the assay with diabetic MSCs is listed as “significant increased pattern in most of genes”.

As for `COC(=O)C1=C(C)NC(C)=C([N+](=O)[O-])C1c1ccccc1C(F)(F)F` (stereo not drawn) [BayK8644, 1,4-dihydro-2,6-dimethyl-5-nitro-4-[2-(trifluoromethyl)phenyl]-3-pyridinecarboxylic acid, methyl ester], the reprogramming efficiency entry in assay [1] is listed as “enhanced the reprogramming efficiency”.
